Measured values taken from ChEMBL document CHEMBL1201862, “PubChem BioAssay data set” (2004).
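Grown in 96-well plates, cells were treated for 48 hours with each compound at five concentrations. Insufficient inhibition: endpoint recorded as highest concentration tested. GI50 = concentration required for 50% inhibition of growth.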 Calls of active or inactive are those of the source. No stated cut-off is given here; in the data, active = GI50 up to about 1.1 µM and inactive = higher.

Key:
Test in all cases: inhibition of tumour cell growth, NCI panel, 48 h
[1] = system: U-251
[2] = system: SF-539
[3] = system: Malme-3M
[4] = system: T47D
[5] = system: OVCAR-5
[6] = system: TK-10
[7] = system: SF-268
[8] = system: IGROV-1
[9] = system: HCC 2998
[10] = system: NCI-H23
[11] = system: EKVX
[12] = system: SK-MEL-28
[13] = system: M14
[14] = system: OVCAR-8
[15] = system: HCT-15
[16] = system: MCF7
[17] = system: UACC-62
[18] = system: SW-620
[19] = system: MOLT-4
[20] = system: SR

SMILES	GI50 [1]	GI50 [2]	GI50 [3]	GI50 [4]	GI50 [5]	GI50 [6]	GI50 [7]	GI50 [8]	GI50 [9]	GI50 [10]	GI50 [11]	GI50 [12]	GI50 [13]	GI50 [14]	GI50 [15]	GI50 [16]	GI50 [17]	GI50 [18]	GI50 [19]	GI50 [20]
Nc1ncnc2c1ccn2C1OC2COP(=O)(O)OC2C1O (stereo not given)	0.31 µM (active)	3.51 µM (inactive)	0.27 µM (active)	0.989 µM (active)	0.849 µM (active)	0.25 µM (active)	0.46 µM (active)	0.488 µM (active)	0.942 µM (active)	0.885 µM (active)	2.64 µM (inactive)	0.515 µM (active)	0.069 µM (active)	0.0773 µM (active)	0.152 µM	0.444 µM (active)	0.0914 µM (active)	0.261 µM (active)	0.681 µM (active)	0.173 µM (active)
Cc1cc(S(=O)(=O)O)c(NC(=O)c2oc3cc(O)ccc3c(=O)c2C)cc1Cl	> 100 µM (inactive)	> 100 µM (inactive)	> 100 µM (inactive)	> 100 µM (inactive)	> 100 µM (inactive)	> 100 µM (inactive)	> 100 µM (inactive)	> 100 µM (inactive)	> 100 µM (inactive)	> 100 µM (inactive)	> 100 µM (inactive)	> 100 µM (inactive)	> 100 µM (inactive)	> 100 µM (inactive)	> 100 µM	> 100 µM (inactive)	> 100 µM (inactive)	> 100 µM (inactive)	> 100 µM (inactive)	> 10 µM (inactive)
Cn1c2ccccc2c(=NNc2ccc(C(=O)O)cc2)c2ccccc21	11.1 µM (inactive)	19.2 µM (inactive)	21.1 µM (inactive)	13.4 µM (inactive)	17.8 µM (inactive)	21.3 µM (inactive)	15.8 µM (inactive)	20.1 µM (inactive)	8.38 µM (inactive)	21.1 µM (inactive)	9.25 µM (inactive)	26 µM (inactive)	16.9 µM (inactive)	14.8 µM (inactive)	18.8 µM	10.4 µM (inactive)	18.5 µM (inactive)	16.1 µM (inactive)	11.3 µM (inactive)	13.8 µM (inactive)
Cc1nc2c(Cl)cc(Cl)cc2c2c1CCO2	> 100 µM (inactive)	> 100 µM (inactive)	> 100 µM (inactive)	> 100 µM (inactive)	> 100 µM (inactive)	> 100 µM (inactive)	> 100 µM (inactive)	> 100 µM (inactive)	> 100 µM (inactive)	> 100 µM (inactive)	54 µM (inactive)	> 100 µM (inactive)	> 100 µM (inactive)	> 100 µM (inactive)	> 100 µM	> 100 µM (inactive)	> 100 µM (inactive)	> 100 µM (inactive)	75.3 µM (inactive)	> 100 µM (inactive)
Cc1ccc([N+](=O)[O-])c2c(NCCNC(=O)Cn3ccnc3[N+](=O)[O-])ccnc12	36.6 µM (inactive)	35.5 µM (inactive)	28.6 µM (inactive)	35.2 µM (inactive)	35.5 µM (inactive)	88.3 µM (inactive)	36.5 µM (inactive)	25.6 µM (inactive)	39.6 µM (inactive)	54.2 µM (inactive)	> 100 µM (inactive)	57.7 µM (inactive)	> 100 µM (inactive)	31.3 µM (inactive)	> 100 µM	18.9 µM (inactive)	22.7 µM (inactive)	37.7 µM (inactive)	> 100 µM (inactive)	> 100 µM (inactive)
